# Test results published in patent US20150336996A1, “MANGANESE-BASED MAGNETIC RESONANCE CONTRAST AGENTS” (THE GENERAL HOSPITAL CORPORATION, priority 2013, published 2015).
# Tests used:
# Format in all cases: physicochemical
# [1] = T1 relaxivity (r1) by inversion recovery on Bruker mq60 Minispec, 1.4 T, 37° C., TRIS buffer pH 7.4
# Description: (§1) Liquid chromatography-electrospray mass spectrometry (LC-MS) was performed using an Agilent 1100 Series apparatus with an LC/MSD trap and Daly conversion dynode detector with UV detection at 220, 254 and 280 nm. The methods used on this system are as follows: (a) Luna C18 column (100×2 mm); eluent A: H2O/0.1% formic acid, B: MeCN/0.1% formic acid; gradient: 5% B to 95% B over 9 minutes; flow rate 0.8 mL/min (used for characterization of organic compounds), and (b) Kromasil C18 column (250×4.6 mm); eluent C: 95% MeCN/5% 10 mM ammonium acetate, D: 10 mM ammonium acetate; gradient 5% C to 8% C over 14 minutes; flow rate 0.8 ml/min (used for characterization of manganese complexes). Reversed-phase semipreparative purification was performed on a Rainin Dynamax HPLC system with UV detection at 254 nm using a Polaris C18 column. The method used for purification is as follows: The mobile phase A was 50 mM ammonium acetate buffer, pH 6.5 and mobile phase B was a mixture of 5% 50 mM ammonium acetate buffer, pH 6.5/95% MeCN. Starting from 5% B, the fraction of B increased to 8% over 23 minutes. The column was washed with 100% B for 2 minutes and then ramped to 5% B. The system was re-equilibrated at 5% B for 3 minutes. Relaxivity measurements were performed on a Bruker mq60 Minispec at 1.4 T and 37° C. Manganese concentrations were determined using an Agilent 7500a ICP-MS system. All samples were diluted with 0.1% Triton X-100 in 5% nitric acid containing 20 ppb of Lu (as internal standard). The ratio of Mn (54.94)/Lu(174.97) was used to quantify the manganese concentration. A linear calibration curve ranging from 0.1 ppb to 200 ppb was generated daily for the quantification. UV-Vis spectra were recorded on a SpectraMax M2 spectrophotometer using quartz cuvette with a 1 cm path length. Cyclic voltammetry of Mn^IIHBET, Mn^IIEDTA and Mn^IIIHBET was recorded using a Nuvant EZstat pro potentiostat in TRIS buffer (pH=7.4), containing 0.5M KNO3 as supporting electrolyte, at 100 mVs-1 scan rate. Glassy carbon was used as the working electrode, Ag/AgCl served as the reference electrode and Pt wire was used as the auxiliary electrode. The K4FeCN6/K3FeCN6 couple was used as the internal standard.
# T1 was measured with an inversion recovery pulse sequence taking 10 inversion times. Relaxivity was determined from the slope of a plot of 1/T1 vs. concentration of in TRIS buffer, pH=7.4 at 37° C. The concentration of manganese in each stock solution was determined using ICP-MS.
# All chemicals and solvents were purchased commercially and used without further purification. NMR spectra were recorded on either a 500 MHz or 400 MHz Varian spectrometers. Chemical shifts are reported in δ (ppm). For ^1H and ^13C NMR spectra, the residual solvent peaks were used as internal reference, except for the ^13C NMR of the ligand where tertiary-butanol was used as the internal reference. Liquid chromatography-electrospray mass spectrometry (LC-MS) was performed using an Agilent 1100 Series apparatus with an LC/MSD trap and Daly conversion dynode detector with UV detection at 220, 254 and 280 nm. The methods used on this system are as follows: (a) Luna C18 column (100×2 mm); eluent A: H2O/0.1% formic acid, B: MeCN/0.1% formic acid; gradient: 5% B to 95% B over 9 minutes; flow rate 0.8 mL/min (used for characterization of organic compounds), and (b) Kromasil C18 column (250×4.6 mm); eluent C: 95% MeCN/5% 10 mM ammonium acetate, D: 10 mM ammonium acetate; gradient 5% C to 8% C over 14 minutes; flow rate 0.8 ml/min (used for characterization of manganese complexes). Reversed-phase semipreparative purification was performed on the Rainin Dynamax HPLC system with UV detection at 254 nm using a Polaris C18 column. The method used for purification is as follows: The mobile phase A was 50 mM ammonium acetate buffer, pH 6.5 and mobile phase B was a mixture of 5% 50 mM ammonium acetate buffer, pH 6.5/95% MeCN. Starting from 5% B, the fraction of B increased to 8% over 23 minutes. […]
# [2] = T1 measurement by MR imaging at 4.7 T (Bruker Biospec); details: room temperature, pH 7.4 TRIS buffer
# Description: Right: relaxivities measured at room temperature at 4.7 T.
# MR imaging was performed using a Bruker Biospec 4.7T system. Three samples (˜500 μL) were placed in a homemade sample holder and imaged using a volume coil. Acquisition matrix=64×256 for 0.234×0.312 mm^2 in-plane resolution; slice thickness=5 mm. T1-weighted images were obtained with a fast low angle shot (FLASH) gradient echo sequence: TR/TE/FA=20/5.44/40° with 8 averages. T1 was determined using a 2D rapid acquisition refocused echo (RARE) inversion recovery sequence: TR=3200 ms, TE=9.7 ms. Inversion times (TI): 5, 45, 85, 165, 325, 645, 1285, 1925 and 3205 ms. T1 was obtained from a nonlinear least square fit of the signal intensity (SI(t)) vs. TI curve where T1, SI(0) and a are adjustable parameters, equation S2.
# SI(t)=SI(0)[1−α,e^TI/T1] (eq. S2)
# [3] = Cyclic voltammetry of the Mn(III)/Mn(II) redox couple
# Description: Potentials are vs. K4Fe(CN)6/K3Fe(CN)6; and in (b), a Cottrell plot of the Mn^2+/Mn^3+ couple—ia, (decreasing line) and ic (increasing line) vs. √v, where v=scan rate.
# as §1
# [4] = UV spectrum as a function of pH (phenol deprotonation pKa); details: fit of UV absorbance vs pH
# Description: To probe the speciation of the manganese complexes in solution, pH titrations of 1:1 Mn^2+:ligand were performed using a 1 N NaOH under N2 atmosphere (FIG. 21).
# To determine the species that exists in these two pH ranges the UV spectrum as a function of pH was monitored (see FIGS. 22-24).
# [5] = Stability of manganese complexes in buffers
# Description: The stability of the manganese complexes were measured in different buffers using concentrations similar to those found in the blood plasma (1 mM phosphate buffer, 25 mM sodium bicarbonate buffer and 0.1 mM citrate buffer). A solution, 0.5 mM, of the manganese complex was incubated in the respective buffers at 37° C. (pH=7.4) and the species were then quantified on the LC-MS using the method as described earlier. The manganese complexes (0.5 mM) were also treated with EDTA (0.5 mM) in TRIS buffer (pH=7.4) and incubated at 37° C. for 1 hour. The species were then quantified on the LC-MS using the method as described earlier.
compound,measurement,setting,value
"O=C([O-])CN(CCN(CC(=O)[O-])Cc1ccccc1[O-])CC(=O)[O-].[Mn+2].[Na+].[Na+] [Compound 4, Na2[Mn^IIHBET]]",T1 relaxivities,"[1]; 1.4 T, Tris buffered saline pH 7.4, 37° C.",2.76 mM⁻¹ s⁻¹
same,r1 (relaxivity of manganese complexes),"[1]; pH 7.4, 37° C., 1.4 Tesla",2.76 mM⁻¹ s⁻¹
same,fold higher relaxivity of reduced Mn^II-HBET form vs Mn^III-HBET,[2],3.3 fold
same,reversible oxidation peak,"[3]; TRIS buffer pH 7.4, vs. K4Fe(CN)6/K3Fe(CN)6",0.356 V
same,Half-cell potential vs. normal hydrogen electrode (NHE),"[3]; pH 7.4, vs. NHE",379 mV
same,pKa for ionization of the phenol,[4],7.64
same,stability in phosphate and carbonate buffers,[5],stable
